Reference: ChEMBL document CHEMBL4422669, “Bisorbicillinol inhibits Lyn tyrosine kinase for allergic response on RBL-2H3 cells” (Bioorg Med Chem Lett, 2019)
The source made the active and inactive calls. The calls are words filed in the database; no cut-off is given here.

Key:
RBL-2H3 [1] = experiment: (§1) Anti-allergic activity in rat RBL2H3 cells assessed as reduction in mouse anti-DNP IgE-induced beta-hexosaminidase release preincubated for 15 mins followed by mouse anti-DNP IgE-stimulation and measured after 3 hrs by p-nitrophenyl-2-acetamide-2-deoxy-beta-glucopyranoside dye-based colorimetric analysis; type: functional, cell-based
RBL-2H3 [2] = experiment: Cytotoxicity in rat RBL2H3 cells assessed as LDH release; type: cell-based; set-up: concentration or dose not given beside the values
RBL-2H3 [3] = experiment: Anti-allergic activity in rat RBL2H3 cells assessed as reduction in calcium ionophore-induced TNF-alpha level preincubated for 15 mins followed by calcium ionophore stimulation and measured after 3 hrs by ELISA; type: functional, cell-based
RBL-2H3 [4] = experiment: Anti-allergic activity in rat RBL2H3 cells assessed as reduction in mouse anti-DNP IgE-induced TNF-alpha level preincubated for 15 mins followed by mouse anti-DNP IgE-stimulation and measured after 3 hrs by ELISA; type: functional, cell-based
RBL-2H3 [5] = experiment: Anti-allergic activity in rat RBL2H3 cells assessed as reduction in calcium ionophore-induced IL-4 level preincubated for 15 mins followed by calcium ionophore stimulation and measured after 3 hrs by ELISA; type: functional, cell-based
RBL-2H3 [6] = experiment: as §1, with “calcium ionophore-induced” for “mouse anti-DNP IgE-induced”, “calcium ionophore-stimulation” for “mouse anti-DNP IgE-stimulation”; type: functional, cell-based
RBL-2H3 [7] = experiment: Anti-allergic activity in rat RBL2H3 cells assessed as reduction in mouse anti-DNP IgE-induced IL-4 level preincubated for 15 mins followed by mouse anti-DNP IgE-stimulation and measured after 3 hrs by ELISA; type: functional, cell-based
[8] = target: Tyrosine-protein kinase Lyn (Rattus norvegicus) (UniProt Q07014); experiment: Inhibition of mouse anti-DNP IgE-induced Lyn phosphorylation in rat RBL2H3 cells at 10 uM preincubated for 15 mins followed by mouse anti-DNP IgE stimulation and measured after 3 hrs by Western blot analysis; type: cell-based
Chain of Tyrosine-protein kinase Lyn (Rattus norvegicus) (Q07014 whole entry): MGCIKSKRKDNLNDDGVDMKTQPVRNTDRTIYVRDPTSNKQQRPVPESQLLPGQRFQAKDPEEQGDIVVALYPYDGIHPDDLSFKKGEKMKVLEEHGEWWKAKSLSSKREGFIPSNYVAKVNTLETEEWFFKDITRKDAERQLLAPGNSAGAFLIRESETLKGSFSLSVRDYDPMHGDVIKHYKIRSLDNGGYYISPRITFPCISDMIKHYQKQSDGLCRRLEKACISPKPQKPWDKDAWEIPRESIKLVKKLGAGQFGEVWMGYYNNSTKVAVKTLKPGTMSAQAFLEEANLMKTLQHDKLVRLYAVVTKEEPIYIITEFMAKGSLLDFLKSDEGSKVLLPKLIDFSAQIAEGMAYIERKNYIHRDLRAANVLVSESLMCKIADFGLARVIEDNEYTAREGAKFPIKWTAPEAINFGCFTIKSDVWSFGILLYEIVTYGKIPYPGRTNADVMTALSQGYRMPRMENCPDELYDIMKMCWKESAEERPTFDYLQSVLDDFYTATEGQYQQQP

RBL-2H3 [9] = experiment: Effect on mouse anti-DNP IgE-induced Lyn protein expression in rat RBL2H3 cells at 10 uM preincubated for 15 mins followed by mouse anti-DNP IgE stimulation and measured after 3 hrs by Western blot analysis; type: functional, cell-based
[10] = target: Tyrosine-protein kinase Lyn (Rattus norvegicus) (UniProt Q07014); experiment: Inhibition of Lyn in rat RBL2H3 cells assessed as reduction in mouse anti-DNP IgE-induced Syk phosphorylation level at 10 uM preincubated for 15 mins followed by mouse anti-DNP IgE stimulation and measured after 3 hrs by Western blot analysis; type: cell-based
RBL-2H3 [11] = experiment: Effect on mouse anti-DNP IgE-induced Syk protein expression in rat RBL2H3 cells at 10 uM preincubated for 15 mins followed by mouse anti-DNP IgE stimulation and measured after 3 hrs by Western blot analysis; type: functional, cell-based
[12] = target: Tyrosine-protein kinase Lyn (Rattus norvegicus) (UniProt Q07014); experiment: Inhibition of Lyn in rat RBL2H3 cells assessed as reduction in mouse anti-DNP IgE-induced PLCgamma1-phosphorylation level at 10 uM preincubated for 15 mins followed by mouse anti-DNP IgE stimulation and measured after 3 hrs by Western blot analysis; type: cell-based
[13] = target: Tyrosine-protein kinase Lyn (Homo sapiens) (UniProt P07948); experiment: Competitive inhibition of human LYN expressed in baculovirus infected Sf9 insect cells using […] at 10 uM after 10 mins by Lineweaver-Burk plot analysis
Chain of Tyrosine-protein kinase Lyn (Homo sapiens) (P07948 2-512 limits assumed): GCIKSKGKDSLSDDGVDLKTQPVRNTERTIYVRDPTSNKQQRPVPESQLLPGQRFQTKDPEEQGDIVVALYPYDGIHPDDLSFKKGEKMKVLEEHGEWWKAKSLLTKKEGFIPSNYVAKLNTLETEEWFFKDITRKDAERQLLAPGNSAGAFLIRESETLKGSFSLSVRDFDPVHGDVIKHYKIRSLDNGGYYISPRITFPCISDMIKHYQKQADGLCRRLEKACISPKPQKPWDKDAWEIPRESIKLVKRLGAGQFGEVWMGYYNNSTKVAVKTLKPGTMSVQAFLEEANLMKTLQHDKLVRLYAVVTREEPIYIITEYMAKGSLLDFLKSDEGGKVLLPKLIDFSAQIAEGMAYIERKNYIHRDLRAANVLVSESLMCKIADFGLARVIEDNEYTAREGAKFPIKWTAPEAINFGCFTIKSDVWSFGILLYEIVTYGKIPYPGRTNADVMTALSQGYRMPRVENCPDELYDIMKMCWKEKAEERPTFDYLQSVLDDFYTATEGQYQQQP

[14] = target: Tyrosine-protein kinase Lyn (Homo sapiens) (UniProt P07948); conditions: Sf9, 10 uM
Description: Inhibition of human LYN expressed in baculovirus infected Sf9 insect cells using p-nitrophenol at 10 uM after 10 mins by Lineweaver-Burk plot analysis

| Compound | IC50 (RBL-2H3 [1]) [µM] | Activity (RBL-2H3 [2]) [%] | IC50 (RBL-2H3 [3]) [µM] | IC50 (RBL-2H3 [4]) [µM] | IC50 (RBL-2H3 [5]) [µM] | IC50 (RBL-2H3 [6]) [µM] | IC50 (RBL-2H3 [7]) [µM] | inhibition [8] | Activity (RBL-2H3 [9]) | inhibition [10] | Activity (RBL-2H3 [11]) | inhibition [12] | inhibition [13] | inhibition [14] |
| --- | --- | --- | --- | --- | --- | --- | --- | --- | --- | --- | --- | --- | --- | --- |
| C/C=C/C=C/C(O)=C1/C(=O)[C@@]2(C)[C@H]3\C(=C(O)/C=C/C=C/C)C(=O)[C@H]4[C@@H]1[C@]1(C)O[C@@]4(O)[C@@]3(C)O[C@@]12O | 4.5 | < 5 | < 100 | 17.3 | 17.9 | < 100 | 59.4 |  |  |  |  |  |  |  |
| C/C=C/C=C/C(=O)[C@]12C(=O)C(C)=C(O)[C@@](C)(O)[C@H]1[C@H]1\C(=C(O)/C=C/C=C/C)C(=O)[C@]2(C)C(=O)[C@@]1(C)O [BISORBICILLINOL] | 2.8 | < 5 | 63.8 | 2.9 | 4.9 | 53.6 | 2.8 | inactive | inactive | Active | inactive | Active | Active |  |
| C/C=C/C=C/C(=O)c1cc(C)c(O)c(C)c1O | 26.5 | < 5 | < 100 |  |  | < 100 |  |  |  |  |  |  |  |  |
| CN[C@@H]1C[C@H]2O[C@@](C)([C@@H]1OC)n1c3ccccc3c3c4c(c5c6ccccc6n2c5c31)C(=O)NC4 |  |  |  |  |  |  |  |  |  |  |  |  | inactive | Active |
| C/C=C/C=C/C(=O)C1=C[C@@]2(C)[C@H]3C(C(=O)/C=C/C=C/C)=C(O)C(C)=C(O)[C@@]3(C)O[C@@]2(O)[C@@](C)(O)C1=O [BISVERTINOLONE] | 9.1 | < 5 | < 100 | 40.8 | 7.3 | < 100 | 7.7 |  |  |  |  |  |  |  |
| C/C=C/C=C/C(O)=C1/C(=O)[C@@]2(C)[C@H]3\C(=C(O)/C=C/C=C/C)C(=O)[C@@]4(C)[C@@H]1[C@]1(C)O[C@@]4(O)[C@@]3(C)O[C@@]12O | 18.3 | < 5 | 23.2 | 29.6 | 9.1 | < 100 | 6.9 |  |  |  |  |  |  |  |
| C/C=C/C=C/C(=O)C1=C[C@](C)(OC(C)=O)C(=O)C(C)=C1O | 4.8 | < 5 | < 100 | 35.6 | 27.1 | < 100 | 8.5 |  |  |  |  |  |  |  |
